{"source": "patent US6140368A", "about": "“Naphthols useful in antiviral methods” (The Regents of the University of California, priority 1998, dated 2000)", "data": [{"biological_target": "HIV reverse transcriptase (Human immunodeficiency virus type 1 group M subtype B, UniProt P03366)", "experiment": "Reverse transcriptase scintillation proximity assay (Example 4, Table 2)", "type": "biochemical", "details": "10 μM inhibitor; relative to dimethyl sulfoxide = 100%; 3 min, 10 µM", "method": "(§1) Reverse transcriptase (\"RT\") activity is measured using a scintillation proximity assay kit available from Amersham Life Sciences, Inc., which uses a biotin/streptavidin bead capture system. RNA-dependent polymerase activity is measured using purified […] and a synthetic 17mer/50mer RNA-DNA template-primer containing biotin at the 5' end of the DNA. The template-primer, buffer, dNTP, and inhibitor are incubated for 10 minutes at 37° C. before the RT is added. The final 100 μl reaction mixture contains: 39 nm of template primer, buffer (40 mM tris HCl at pH 8.0, 10 mM MgCl2, 60 mM KCl, 10 mM dithiothreitol); 75 nM of each dNTP except dTTP; 25 nM dTTP and 35 nM tritium labeled d*TTP; 10 μM inhibitor; and 1.0-2.0 μg of RT. After three minute incubation, the reaction is quenched with 40 μl of 0.56M EDTA. Then 10 μl of streptavidin SPA beads (in suspension) are added and incubated at 37° C. for 10 minutes. Finally, 850 μl of a buffer containing 10 mM Tris HCl pH 7.4 and 0.15M NaCl is added. The signal is produced by biotinylated polymers incorporating d*TTP binding to the streptavidin beads which stimulate the scintillant. The amount of d*TTP incorporated in the polymer is measured with a scintillation counter.\n(§2) Compounds showing good inhibition will give a low number of counts/min (cpm). This number is related to a standard, dimethyl sulfoxide, which is given an arbitrary 100% relative activity. All cpm data in a single run are given a percent of this standard.", "values": [{"compound": "O=C(O)c1ccc(N=Nc2c(S(=O)(=O)O)cc3cc(NC(=O)c4ccc(C(=O)Nc5ccc6c(O)c(N=Nc7ccc(C(=O)O)cc7)c(S(=O)(=O)O)cc6c5)cc4)ccc3c2O)cc1", "note": "[Compound 162]", "% RT activity remaining at 10 μM": "5.9%"}, {"compound": "O=C(O)c1ccc(N=Nc2c(S(=O)(=O)O)cc3cc(NC(=O)c4cccc(C(=O)Nc5ccc6c(O)c(N=Nc7ccc(C(=O)O)cc7)c(S(=O)(=O)O)cc6c5)n4)ccc3c2O)cc1", "note": "[Compound 127]", "% RT activity remaining at 10 μM": ".14%"}]}, {"biological_target": "HIV reverse transcriptase (Human immunodeficiency virus type 1 group M subtype B, UniProt P03366)", "experiment": "Reverse transcriptase scintillation proximity assay (Example 4, Table 2)", "type": "biochemical", "details": "0.05 h, 10 μM inhibitor; relative to dimethyl sulfoxide = 100%; read-out: % RT activity remaining at 10 μM", "method": "as §1, §2", "units": {"remaining activity at 10 µM": "%"}, "values": [{"compound": "O=C(O)c1ccc(C(=O)O)c(N=Nc2c(S(=O)(=O)O)cc3cc(NC(=O)c4ccc(C(=O)Nc5ccc6c(O)c(N=Nc7cc(C(=O)O)ccc7C(=O)O)c(S(=O)(=O)O)cc6c5)cc4)ccc3c2O)c1", "note": "[Compound 173]", "remaining activity at 10 µM": 27}, {"compound": "O=C(O)CC(C(=O)O)c1ccc(N=Nc2c(S(=O)(=O)O)cc3cc(NC(=O)c4cccc(C(=O)Nc5ccc6c(O)c(N=Nc7ccc(C(CC(=O)O)C(=O)O)cc7)c(S(=O)(=O)O)cc6c5)n4)ccc3c2O)cc1", "note": "(centres unmarked) [Compound 124]", "remaining activity at 10 µM": 1.2}, {"compound": "COc1cc(N=Nc2c(S(=O)(=O)O)cc3cc(NC(=O)c4ccc(C(=O)Nc5ccc6c(O)c(N=Nc7cc(OC)c(OC)c(OC)c7)c(S(=O)(=O)O)cc6c5)cc4)ccc3c2O)cc(OC)c1OC", "note": "[Compound 175]", "remaining activity at 10 µM": 62}, {"compound": "Cc1cc(C(=O)O)ccc1N=Nc1c(S(=O)(=O)O)cc2cc(NC(=O)c3cc(=O)cc(C(=O)Nc4ccc5c(O)c(N=Nc6ccc(C(=O)O)cc6C)c(S(=O)(=O)O)cc5c4)o3)ccc2c1O", "note": "[Compound 144]", "remaining activity at 10 µM": 0.26}, {"compound": "CCOC(=O)c1cccc(NC(=O)Nc2ccc3cc(S(=O)(=O)O)cc(O)c3c2)c1", "note": "[Compound 75]", "remaining activity at 10 µM": 85}, {"compound": "O=C(Nc1ccc2c(O)cc(S(=O)(=O)O)cc2c1)Nc1cccc2c1C(=O)c1ccccc1C2=O", "note": "[Compound 20]", "remaining activity at 10 µM": 86}, {"compound": "COC(=O)c1cc(NC(=O)Nc2ccc3cc(S(=O)(=O)O)cc(O)c3c2)cc(C(=O)OC)c1", "note": "[Compound 27]", "remaining activity at 10 µM": 80}, {"compound": "COc1cc(C(=O)O)ccc1N=Nc1c(S(=O)(=O)O)cc2cc(NC(=O)c3cc(=O)cc(C(=O)Nc4ccc5c(O)c(N=Nc6ccc(C(=O)O)cc6OC)c(S(=O)(=O)O)cc5c4)o3)ccc2c1O", "note": "[Compound 139]", "remaining activity at 10 µM": 0.34}, {"compound": "O=C(O)CC(C(=O)O)c1ccc(N=Nc2c(S(=O)(=O)O)cc3cc(Nc4c(Nc5ccc6c(O)c(N=Nc7ccc(C(CC(=O)O)C(=O)O)cc7)c(S(=O)(=O)O)cc6c5)c(=O)c4=O)ccc3c2O)cc1", "note": "(centres unmarked) [Compound 191]", "remaining activity at 10 µM": 0.3}, {"compound": "O=C(Nc1ccc2ccccc2c1)Nc1ccc2c(O)cc(S(=O)(=O)O)cc2c1", "note": "[Compound 13]", "remaining activity at 10 µM": 82}, {"compound": "O=C(Nc1ccc2c(O)cc(S(=O)(=O)O)cc2c1)Nc1cccc2ccccc12", "note": "[Compound 11]", "remaining activity at 10 µM": 90}, {"compound": "COc1cc(N=Nc2c(S(=O)(=O)O)cc3cc(NC(=O)c4cccc(C(=O)Nc5ccc6c(O)c(N=Nc7cc(OC)c(OC)c(OC)c7C(=O)O)c(S(=O)(=O)O)cc6c5)n4)ccc3c2O)c(C(=O)O)c(OC)c1OC", "note": "[Compound 128]", "remaining activity at 10 µM": 5}, {"compound": "CC(=O)Nc1ccc2c(OC(C)=O)cc(S(=O)(=O)O)cc2c1", "note": "[Compound 22]", "remaining activity at 10 µM": 100}, {"compound": "O=C(O)CC(C(=O)O)c1ccc(N=Nc2c(S(=O)(=O)O)cc3cc(NC(=O)c4ccc(C(=O)Nc5ccc6c(O)c(N=Nc7ccc(C(CC(=O)O)C(=O)O)cc7)c(S(=O)(=O)O)cc6c5)cc4)ccc3c2O)cc1", "note": "(centres unmarked) [Compound 166]", "remaining activity at 10 µM": 0.14}, {"compound": "O=C(O)c1ccc(Cl)c(N=Nc2c(S(=O)(=O)O)cc3cc(NC(=O)c4ccc(C(=O)Nc5ccc6c(O)c(N=Nc7cc(C(=O)O)ccc7Cl)c(S(=O)(=O)O)cc6c5)cc4)ccc3c2O)c1", "note": "[Compound 172]", "remaining activity at 10 µM": 0.08}, {"compound": "COc1cc(C(=O)O)ccc1N=Nc1c(S(=O)(=O)O)cc2cc(Nc3c(Nc4ccc5c(O)c(N=Nc6ccc(C(=O)O)cc6OC)c(S(=O)(=O)O)cc5c4)c(=O)c3=O)ccc2c1O", "note": "[Compound 193]", "remaining activity at 10 µM": 0.4}, {"compound": "O=C(Nc1ccc2cc(S(=O)(=O)O)ccc2c1)Nc1ccc2cc(S(=O)(=O)O)ccc2c1", "note": "[Compound 82]", "remaining activity at 10 µM": 92}, {"compound": "Cc1cc(C(=O)O)ccc1N=Nc1c(S(=O)(=O)O)cc2cc(Nc3c(Nc4ccc5c(O)c(N=Nc6ccc(C(=O)O)cc6C)c(S(=O)(=O)O)cc5c4)c(=O)c3=O)ccc2c1O", "note": "[Compound 192]", "remaining activity at 10 µM": 0.3}, {"compound": "O=C(Nc1ccc2c(O)cc(S(=O)(=O)O)cc2c1)c1cc(O)cc(C(=O)Nc2ccc3c(O)cc(S(=O)(=O)O)cc3c2)n1", "note": "[Compound 145]", "remaining activity at 10 µM": 47}, {"compound": "O=C(O)Cc1ccc(N=Nc2c(S(=O)(=O)O)cc3cc(Nc4c(Nc5ccc6c(O)c(N=Nc7ccc(CC(=O)O)cc7)c(S(=O)(=O)O)cc6c5)c(=O)c4=O)ccc3c2O)cc1", "note": "[Compound 187]", "remaining activity at 10 µM": 0.3}, {"compound": "CCOC(=O)c1ccc(N=Nc2c(S(=O)(=O)O)cc3cc(NC(=O)Nc4ccc5c(O)c(N=Nc6ccc(C(=O)OCC)cc6)c(S(=O)(=O)O)cc5c4)ccc3c2O)cc1", "note": "[Compound 44]", "remaining activity at 10 µM": 19}, {"compound": "O=C(Nc1ccc2c(O)cc(S(=O)(=O)O)cc2c1)Nc1cccc2c(=O)[nH][nH]c(=O)c12", "note": "[Compound 16]", "remaining activity at 10 µM": 81}, {"compound": "O=C(Nc1ccc2c(c1)C(=O)c1ccccc1C2=O)Nc1ccc2c(O)cc(S(=O)(=O)O)cc2c1", "note": "[Compound 15]", "remaining activity at 10 µM": 88}, {"compound": "O=C(Nc1ccc2c(O)cc(S(=O)(=O)O)cc2c1)c1ccc(C(=O)Nc2ccc3c(O)cc(S(=O)(=O)O)cc3c2)cc1", "note": "[Compound 160]", "remaining activity at 10 µM": 74}, {"compound": "COc1cc(C(=O)O)c(N=Nc2c(S(=O)(=O)O)cc3cc(NC(=O)c4ccc(C(=O)Nc5ccc6c(O)c(N=Nc7c(C(=O)O)cc(OC)c(OC)c7OC)c(S(=O)(=O)O)cc6c5)cc4)ccc3c2O)c(OC)c1OC", "note": "[Compound 177]", "remaining activity at 10 µM": 0.17}, {"compound": "O=C(O)c1cc(N=Nc2c(S(=O)(=O)O)cc3cc(NC(=O)c4ccc(C(=O)Nc5ccc6c(O)c(N=Nc7cc(C(=O)O)cc(C(=O)O)c7)c(S(=O)(=O)O)cc6c5)cc4)ccc3c2O)cc(C(=O)O)c1", "note": "[Compound 178]", "remaining activity at 10 µM": 91}, {"compound": "COC(=O)c1ccccc1NC(=O)Nc1ccc2c(O)cc(S(=O)(=O)O)cc2c1", "note": "[Compound 29]", "remaining activity at 10 µM": 108}, {"compound": "O=C(O)CCCCCc1ccc(N=Nc2c(S(=O)(=O)O)cc3cc(NC(=O)c4cccc(C(=O)Nc5ccc6c(O)c(N=Nc7ccc(CCCCCC(=O)O)cc7)c(S(=O)(=O)O)cc6c5)n4)ccc3c2O)cc1", "note": "[Compound 121]", "remaining activity at 10 µM": 0.16}, {"compound": "O=C(Nc1ccc2c(O)cc(S(=O)(=O)O)cc2c1)c1ccccc1", "note": "[Compound 21]", "remaining activity at 10 µM": 108}, {"compound": "COc1cc(N=Nc2c(S(=O)(=O)O)cc3cc(NC(=O)c4cc(O)cc(C(=O)Nc5ccc6c(O)c(N=Nc7cc(OC)c(OC)c(OC)c7C(=O)O)c(S(=O)(=O)O)cc6c5)n4)ccc3c2O)c(C(=O)O)c(OC)c1OC", "note": "[Compound 156]", "remaining activity at 10 µM": 15}, {"compound": "O=C(Nc1ccc2c(O)c(N=Nc3ccc(Br)cc3Br)c(S(=O)(=O)O)cc2c1)c1ccc(C(=O)Nc2ccc3c(O)c(N=Nc4ccc(Br)cc4Br)c(S(=O)(=O)O)cc3c2)cc1", "note": "[Compound 182]", "remaining activity at 10 µM": 35}, {"compound": "O=C(O)CCCCCc1ccc(N=Nc2c(S(=O)(=O)O)cc3cc(NC(=O)c4cc(=O)cc(C(=O)Nc5ccc6c(O)c(N=Nc7ccc(CCCCCC(=O)O)cc7)c(S(=O)(=O)O)cc6c5)o4)ccc3c2O)cc1", "note": "[Compound 135]", "remaining activity at 10 µM": 0.16}, {"compound": "CC(NC(=O)Nc1ccc2c(O)cc(S(=O)(=O)O)cc2c1)c1ccc(F)cc1", "note": "(centres unmarked) [Compound 12]", "remaining activity at 10 µM": 88}, {"compound": "Cc1ccc(CO)cc1N=Nc1c(S(=O)(=O)O)cc2cc(NC(=O)c3ccc(C(=O)Nc4ccc5c(O)c(N=Nc6cc(CO)ccc6C)c(S(=O)(=O)O)cc5c4)cc3)ccc2c1O", "note": "[Compound 180]", "remaining activity at 10 µM": 45}, {"compound": "O=C(Nc1ccc2c(O)cc(S(=O)(=O)O)cc2c1)Nc1ccc2cc(S(=O)(=O)O)cc(O)c2c1", "note": "[Compound 9]", "remaining activity at 10 µM": 75}, {"compound": "O=c1c(Nc2ccc3cc(S(=O)(=O)O)cc(O)c3c2)c(Nc2ccc3cc(S(=O)(=O)O)cc(O)c3c2)c1=O", "note": "[Compound 198]", "remaining activity at 10 µM": 37}, {"compound": "O=C(O)c1cccc(N=Nc2c(S(=O)(=O)O)cc3cc(NC(=O)c4ccc(C(=O)Nc5ccc6c(O)c(N=Nc7cccc(C(=O)O)c7)c(S(=O)(=O)O)cc6c5)cc4)ccc3c2O)c1", "note": "[Compound 170]", "remaining activity at 10 µM": 0.1}, {"compound": "O=C(Nc1ccc2ccc(S(=O)(=O)O)cc2c1)Nc1ccc2ccc(S(=O)(=O)O)cc2c1", "note": "[Compound 80]", "remaining activity at 10 µM": 84}, {"compound": "COc1ccc(N=Nc2c(S(=O)(=O)O)cc3cc(NC(=O)c4ccc(C(=O)Nc5ccc6c(O)c(N=Nc7ccc(OC)cc7)c(S(=O)(=O)O)cc6c5)cc4)ccc3c2O)cc1", "note": "[Compound 176]", "remaining activity at 10 µM": 60}]}, {"biological_target": "HIV reverse transcriptase (Human immunodeficiency virus type 1 group M subtype B, UniProt P03366)", "experiment": "Reverse transcriptase scintillation proximity assay (Example 4, Table 2)", "type": "biochemical", "details": "read-out: IC50 (RT activity)", "method": "as §1, §2", "units": {"IC50": "nM"}, "values": [{"compound": "O=c1c(Nc2ccc3c(O)cc(S(=O)(=O)O)cc3c2)c(Nc2ccc3c(O)cc(S(=O)(=O)O)cc3c2)c1=O", "note": "[Compound 184]", "IC50": 1000}, {"compound": "O=C(O)/C=C/c1ccc(N=Nc2c(S(=O)(=O)O)cc3ccc(NC(=O)Nc4ccc5cc(S(=O)(=O)O)c(N=Nc6ccc(/C=C/C(=O)O)cc6)c(O)c5c4)cc3c2O)cc1", "note": "[Compound 86]", "IC50": 1200}, {"compound": "O=C(O)c1c(F)c(F)c(N=Nc2c(S(=O)(=O)O)cc3cc(Nc4c(Nc5ccc6c(O)c(N=Nc7c(F)c(F)c(C(=O)O)c(F)c7F)c(S(=O)(=O)O)cc6c5)c(=O)c4=O)ccc3c2O)c(F)c1F", "note": "[Compound 194]", "IC50": 440}]}]}
